From PubChem BioAssay (NCI)
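All cell lines were grown in 96-well plates and treated with compound for 48 hours. GI50 is the concentration that inhibits growth by half. At the TGI there is no net growth.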

Test system: MDA-MB-468 breast
Experiment: growth of human tumour cells (NCI), 48 h

Question: How did the GI50 turn out when `O=c1c(I)c[nH]cc1I` was run?
Answer: The GI50 was greater than 100 µM.

Question: And the TGI?
Answer: Its TGI is greater than 100 µM.

Question: For `O=C(/C=C/c1ccc(O)c(O)c1)N1CCN(c2ccc(Cl)cc2)CC1`, which GI50 is on record?
Answer: The GI50 was 2.45 µM.

Question: What about the TGI of the same compound?
Answer: Its TGI is 13 µM.

Question: How did the GI50 turn out when `CCCCCCCCCCCC1N=C(N)N=C(N)N1c1cccc(Br)c1` (centres undefined) was run?
Answer: The GI50 was 0.528 µM.

Question: And the TGI?
Answer: Its TGI is 1.98 µM.

Question: For `Cc1ccc(-c2nc(NCCOCCOCCN)nc(N3CCN(c4ccccn4)CC3)n2)cc1`, which GI50 is on record?
Answer: Its GI50 is 7.04 µM.

Question: What about the TGI of the same compound?
Answer: The TGI was 18 µM.

Question: Which GI50 does the source give for `CCn1c(-c2nonc2N)nc2ccccc21` here?
Answer: The GI50 was greater than 14.9 µM.

Question: What about the TGI of the same compound?
Answer: Its TGI is greater than 25 µM.

Question: `CNC(=O)CCN1CCN(CC/C=C2\c3ccccc3Sc3ccc(Cl)cc32)CC1` was tested. Which GI50 did it give?
Answer: The GI50 was 3.63 µM.

Question: And the TGI?
Answer: The TGI was 16.9 µM.

Question: Which results are given for `CCN(CC)c1ccc(/C=N/NC(=O)Cc2ccc(Nc3ccnc(C(F)(F)F)c3)cc2)c(O)c1`?
Answer: GI50: 0.588 µM; TGI: > 60.3 µM

Question: Which GI50 does the source give for `COC(=O)c1c(C)nc(C)c2c1C(=O)C(Br)=C(NCc1ccccc1)C2=O` here?
Answer: Its GI50 is 1.11 µM.

Question: And the TGI?
Answer: The TGI was 2.75 µM.

Question: Which results are given for `NC(=NCCCCCCN=C(N)/N=C(\N)Nc1ccc(Cl)cc1)/N=C(\N)Nc1ccc(Cl)cc1`?
Answer: GI50: 0.952 µM; TGI: 2.28 µM

Question: Which results are given for `COc1cc(-c2nc(-c3ccccc3)c(-c3ccccc3)[nH]2)cc(OC)c1O`?
Answer: GI50: 15.2 µM; TGI: 37.7 µM

Question: What does the source list for `Cc1cc(N2CCC(N3CCCC3)CC2)nc(/N=C(\N)Nc2ccc(Cl)c(Cl)c2)n1`?
Answer: GI50: 1.4 µM; TGI: 2.73 µM

Question: Which GI50 does the source give for `[Br][Pb]([c]1ccccc1)([c]1ccccc1)[c]1ccccc1` here?
Answer: Its GI50 is 0.148 µM.

Question: And the TGI?
Answer: The TGI was 0.294 µM.

Question: With `CCN(CC)CCOC(COc1cc(C)cc(C)c1)COc1cc(C)cc(C)c1` as the compound, how does the GI50 read?
Answer: Its GI50 is 1.74 µM.

Question: And the TGI?
Answer: The TGI was 3.55 µM.

Question: With `Nc1ccc(CC[C@H]2CCC/C=C/[C@@H]3C[C@H](O)C[C@H]3[C@H](O)/C=C/C(=O)O2)cc1` as the compound, how does the GI50 read?
Answer: The GI50 was 0.0106 µM.

Question: And the TGI?
Answer: The TGI was 0.0374 µM.

Question: How did the GI50 turn out when `Cn1c(=O)c(-c2ccccc2Cl)cc2cnc(NC3CCOCC3)nc21` was run?
Answer: The GI50 was greater than 19.9 µM.

Question: What about the TGI of the same compound?
Answer: Its TGI is greater than 25 µM.

Question: What does the source list for `CC1(C)N=C(N)N=C(N)N1c1ccc(CCCC(=O)Nc2ccc(S(=O)(=O)F)cc2)cc1`?
Answer: GI50: 3.33 µM; TGI: > 100 µM

Question: Which results are given for `O=C(Nc1cccc(-n2ccc3c(NC(=O)c4ccccc4)ncnc32)c1)Nc1ccc(Cl)c(C(F)(F)F)c1`?
Answer: GI50: 1.48 µM; TGI: 6.06 µM

Question: Which results are given for `CC[C@H](C)[C@H](NC(=O)[C@H]1CCCCN1C)C(=O)N(C)[C@H](CCc1nc(C(=O)N[C@@H](Cc2ccccc2)C[C@H](C)C(=O)O)cs1)C(C)C`?
Answer: GI50: 0.085 µM; TGI: > 25 µM

Question: With `Nc1ncn([C@H]2CC(O)[C@@H](CO)S2)c(=O)n1` (some centres undefined) as the compound, how does the GI50 read?
Answer: The GI50 was 5.8 µM.

Question: And the TGI?
Answer: Its TGI is greater than 100 µM.

Question: `CN1C2C=CC(=O)C1C1C(=O)N(c3ccccc3)C(=O)C12` (centres undefined) was tested. Which GI50 did it give?
Answer: Its GI50 is 2.45 µM.

Question: What about the TGI of the same compound?
Answer: Its TGI is 9.03 µM.

Question: For `CC[C@H](C)[C@H](NC(=O)C12C3C4C1C1C2C3C41NC)C(=O)N(C)[C@H](C[C@@H](OC(C)=O)c1nc(C(=O)N[C@@H](Cc2ccccc2)C[C@H](C)C(=O)OC)cs1)C(C)C` (some centres undefined), which GI50 is on record?
Answer: Its GI50 is 0.217 µM.

Question: What about the TGI of the same compound?
Answer: The TGI was greater than 5.49 µM.

Question: For `CC(=O)c1cc2c(N)c(C(=O)Nc3cccc4ccccc34)sc2nc1C`, which GI50 is on record?
Answer: The GI50 was 1.64 µM.

Question: And the TGI?
Answer: The TGI was 31.1 µM.
